Several values for one entry are separate records, joined by “and”; a condition that tells them apart may be missing. Equal entries are not always repeated. Where two headings read alike, the source gives them in different places.
Assays:
[1] = test system: HDMB03 (HDMBO3) group 3 medulloblastoma cells; assay: CellTiter-Glo dose-response growth assay; assay type: cell-based; conditions: Homo sapiens, HD-MB03; HDMBO3 G3MB cell growth; read-out: IC50 (nM) HDMBO3
Procedure: CellTiter-Glo assay was performed as per the manufacturer’s instructions, at the noted timepoint after compound treatment or plating. For Kelly, TE617T, RhJT, NCIH2122, NCIH650 and 143B, 500 cells were plated in normal growth media per well in a 384-well plate (Corning). HDMB03 and MB002 cells were plated in growth media at 500 cells/well in a 384-well plate. […] Cells were incubated for the noted timepoints prior to performing CellTiter-Glo assay as per the manufacturer’s instructions, and reading plates on an Envision 2104 microplate reader.

BRD4-BD1 (BRD4-1) = target: T1, BRD4-BD1 (BRD4-1) (Homo sapiens, UniProt O60885); assay: Differential scanning fluorimetry (DSF) thermal shift; assay type: binding; conditions: DSF
T1 construct: BRD4-BD1 (residues 44-168); 6xHis (cleaved yes); host or cells: E. coli BL21 (DE3) RIL
Procedure: (§1) At OD600 of 0.6, the culture was cooled down to 18 °C and induced with 0.1 mM IPTG. After 18 h growth, the culture was harvested by centrifugation at 6000 × g for 25 min and stored at -80 °C. Harvested cell pellets were re-suspended in 50 mM Na/K phosphate buffer (pH 7.4) containing 100 mM NaCl, 40 mM imidazole, 0.01% w/v lysozyme and 0.01% v/v Triton X-100 at 4 °C for 1 h, subjected to sonication and the lysate was clarified by centrifugation (30,000 × g for 45 min at 4 °C). Proteins were purified by FPLC at 4 °C using columns and chromatography materials from GE Healthcare. […] Proteins were purified to homogeneity by size exclusion chromatography using Superdex 75 equilibrated with elution buffer (50 mM HEPES pH 7.5, 100 mM NaCl, 2 mM DTT). All BRDs eluted as monomeric protein and were of crystallization grade quality (>95% purity as judged by SDS-PAGE). Pool fractions were combined, concentrated to 10–12 mg/ml, and aliquots were flash-frozen in liquid N2 and stored at −80 °C.
(§2) DSF experiments were performed with an Applied Biosystem StepOnePlus real-time PCR system (Thermo Fisher Scientific) using 96-well format plates, assayed in quadruplicate. For thermal shift determination, 5 μM protein was mixed with 100 μM compound in 50 mM HEPES, pH 7.5, 150 mM NaCl, 2 mM DTT, 2% DMSO, 5X SYPRO Orange (Thermo Fisher Scientific) in 20 μL reaction volumes. Reaction mixtures were heated from 25 to 95 °C at 1 °C/min with fluorescence readings every 0.5 °C at 610 nm. The observed thermal shift (ΔTm) was recorded as the difference between the Tm of sample and DMSO reference wells.

EP300 bromodomain = target: T2, EP300 bromodomain (Homo sapiens, UniProt Q09472); assay: as above; assay type: binding; conditions: DSF
T2 construct: 6xHis (cleaved yes); host or cells: E. coli BL21 (DE3) RIL
T2 sequence (Q09472 1048-1161): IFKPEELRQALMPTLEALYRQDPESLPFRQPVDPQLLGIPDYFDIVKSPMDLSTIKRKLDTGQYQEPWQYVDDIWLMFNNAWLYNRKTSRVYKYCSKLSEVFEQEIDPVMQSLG
Procedure: as §1, §2

CBP bromodomain [2] = target: T3, CBP bromodomain (Homo sapiens, UniProt Q92793); assay: as above; assay type: binding
T3 construct: CBP (residues 1081-1197); 6xHis (cleaved yes); host or cells: E. coli BL21 (DE3) RIL
Procedure: as §1, with “After” for “At OD600 of 0.6, the culture was cooled down to 18 °C and induced with 0.1 mM IPTG. After”, “All BRDs eluted as monomeric protein and were of crystallization grade quality (>95% purity as judged by SDS-PAGE).” left out
(§3) DSF experiments were performed with an Applied Biosystem StepOnePlus real-time PCR system (Thermo Fisher Scientific) using 96-well format plates, assayed in quadruplicate. For thermal shift determination, 5 μM protein was mixed with 100 μM compound in 50 mM HEPES, pH 7.5, 150 mM NaCl, 2 mM DTT, 2% DMSO, 5X SYPRO Orange (Thermo Fisher Scientific) in 20 μL reaction volumes.

CBP bromodomain [3] = assay: as above; assay type: binding; conditions: ΔTm (CBP)/ΔTm(BRD4)
Procedure: as §1, with “After” for “At OD600 of 0.6, the culture was cooled down to 18 °C and induced with 0.1 mM IPTG. After”, “All BRDs eluted as monomeric protein and were of crystallization grade quality (>95% purity as judged by SDS-PAGE).” left out
as §3

[4] = target: GFP-tagged CBP bromodomain (Homo sapiens, UniProt Q92793); assay: Microscale thermophoresis (MST); assay type: binding
Procedure: MST experiments were performed in a Monolith NT.115 Pico instrument (NanoTemper Technologies) following published procedures. […] MST traces were recorded using standard parameters: 5 s MST power off, 30 s MST power on and 5 s MST power off. Measurements were taken at -1-0 s (cold region) and 10 s (hot region) and data were analyzed using the NTAnalysis software.

[5] = 5 μM protein, 100 μM compound, three independent experiments, average ± SD

GFP-tagged CBP bromodomain, sequence (Q92793 1085-1192 limits assumed): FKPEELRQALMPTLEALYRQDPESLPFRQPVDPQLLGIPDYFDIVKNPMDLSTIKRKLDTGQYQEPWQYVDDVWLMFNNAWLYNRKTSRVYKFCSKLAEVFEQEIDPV
T3 sequence (Q92793 1081-1197): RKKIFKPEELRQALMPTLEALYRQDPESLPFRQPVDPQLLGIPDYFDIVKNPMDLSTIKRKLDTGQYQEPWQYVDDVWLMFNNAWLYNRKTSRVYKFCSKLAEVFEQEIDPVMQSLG

- IC50 [1]: 271 ± 62 nM
- ∆Tm (°C) BRD4-1 (BRD4-BD1 (BRD4-1); [5]): 2.1 ± 0.96 °C
- ΔTm (°C) BRD4-BD1 (BRD4-BD1 (BRD4-1); Figure 3A, BRD4-BD1): 2.1 °C
- ∆Tm (°C) EP300 (EP300 bromodomain; [5]): 9.2 ± 1.5 °C
- ΔTm (°C) EP300 (EP300 bromodomain; Figure 3B, EP300): 9.2 °C
- ∆Tm (°C) CBP (CBP bromodomain [2]; DSF, 5 μM protein, 100 μM compound, three independent experiments, average ± SD): 9.9 ± 1.02 °C
- ΔTm (°C) CBP (CBP bromodomain [2]; Figure 3A, DSF, CBP bromodomain): 9.9 °C
- ΔTm (°C) CBP (CBP bromodomain [2]; Figure 3B, DSF, CBP): 9.9 °C
- DSF ΔTm (°C) (CBP bromodomain [2]; Figure 3C, DSF (values equal CBP column)): 9.9 °C
- Kd ([4]; Figure 3C, MST, read-out: MST Kd): 116 nM
- Response (Dose Response Curve) ([4]; MST raw response, Dose 1.52588e-10, single replicate run, listed as iCBP-4): 892.093 and 891.258 and 891.615
- Response (Dose Response Curve (Outliers)) ([4]; MST raw response, Dose 3.05176e-10, point marked as outlier and left out of the fit): 895.82
- Response (Dose Response Curve) ([4]; MST raw response, Dose 3.05176e-10, single replicate run, listed as iCBP-4): 892.272 and 892.058
- Response (Dose Response Curve) ([4]; MST raw response, Dose 6.10352e-10, single replicate run, listed as iCBP-4): 892.269 and 892.744 and 892.22
- Response (Dose Response Curve) ([4]; MST raw response, Dose 1.2207e-9, single replicate run, listed as iCBP-4): 892.399 and 891.675 and 892.288
- Response (Dose Response Curve) ([4]; MST raw response, Dose 2.44141e-9, single replicate run, listed as iCBP-4): 891.725 and 891.585 and 891.994
- Response (Dose Response Curve) ([4]; MST raw response, Dose 4.88281e-9, single replicate run, listed as iCBP-4): 891.567 and 892.575 and 891.165
- Response (Dose Response Curve) ([4]; MST raw response, Dose 9.76563e-9, single replicate run, listed as iCBP-4): 891.493 and 891.567 and 891.238
- Response (Dose Response Curve) ([4]; MST raw response, Dose 1.95313e-8, single replicate run, listed as iCBP-4): 891.688 and 891.424 and 891.76
- Response (Dose Response Curve) ([4]; MST raw response, Dose 3.90625e-8, single replicate run, listed as iCBP-4): 892.161 and 891.262 and 889.541
- Response (Dose Response Curve) ([4]; MST raw response, Dose 7.8125e-8, single replicate run, listed as iCBP-4): 890.263 and 890.555 and 890.434
- Response (Dose Response Curve) ([4]; MST raw response, Dose 1.5625e-7, single replicate run, listed as iCBP-4): 890.147 and 890.553 and 889.395
- Response (Dose Response Curve) ([4]; MST raw response, Dose 3.125e-7, single replicate run, listed as iCBP-4): 888.926 and 888.984 and 889.107
- Response (Dose Response Curve) ([4]; MST raw response, Dose 6.25e-7, single replicate run, listed as iCBP-4): 888.767 and 888.447 and 889.182
- Response (Dose Response Curve) ([4]; MST raw response, Dose 1.25e-6, single replicate run, listed as iCBP-4): 887.998 and 889.672 and 887.288
- Response (Dose Response Curve) ([4]; MST raw response, Dose 2.5e-6, single replicate run, listed as iCBP-4): 887.993 and 886.376 and 888.472
- Response (Dose Response Curve) ([4]; MST raw response, Dose 5e-6, single replicate run, listed as iCBP-4): 887.809 and 888.569 and 888.97
- Kd ([4]; MST, single replicate run, target clGFP-CBPBRD, TargetConcentration 5e-8, MST-Power Medium, unit inferred, read-out: Kd (Fit Results, Fit Model: Kd)): 142 nM and 167 nM and 39.1 nM
- Bound (Fit Results) ([4]; fitted MST response of bound state, single replicate run, target clGFP-CBPBRD 5e-8, listed as iCBP-4): 887.684 and 887.776 and 888.434
- Unbound (Fit Results) ([4]; fitted MST response of unbound state, single replicate run, target clGFP-CBPBRD 5e-8, listed as iCBP-4): 892.098 and 891.946 and 891.879
- loss of binding affinity (CBP) ([4]; relative to CCS1477): ~ 40 fold
- Kd ([4]; three independent MST experiments, average ± SD, read-out: Kd (nM) CBP): 116 ± 68 nM
Compound: COC1CCC(n2c(C3CCCC(=O)N3c3cc(C(F)(F)F)cc(C(F)(F)F)c3)nc3cc(-c4c(C)noc4C)ccc32)CC1 (stereo not drawn) [Compound 4]
- Ratio CBP/BRD4 of ∆Tm (CBP bromodomain [3]): 4.7
